In patent US8809342B2, “Glucagon receptor modulators” (Pfizer Inc., priority 2010, dated 2014):

molecular target: T1, human glucagon receptor (Homo sapiens, UniProt P47871); experiment: Glucagon cAMP assay (Cisbio cAMP detection); format: cell-based; note: 100 pM glucagon challenge
T1 construct: expressed in transfected cells; host or cells: CHO-K1 cells, stably transfected
T1 sequence (P47871 26-477): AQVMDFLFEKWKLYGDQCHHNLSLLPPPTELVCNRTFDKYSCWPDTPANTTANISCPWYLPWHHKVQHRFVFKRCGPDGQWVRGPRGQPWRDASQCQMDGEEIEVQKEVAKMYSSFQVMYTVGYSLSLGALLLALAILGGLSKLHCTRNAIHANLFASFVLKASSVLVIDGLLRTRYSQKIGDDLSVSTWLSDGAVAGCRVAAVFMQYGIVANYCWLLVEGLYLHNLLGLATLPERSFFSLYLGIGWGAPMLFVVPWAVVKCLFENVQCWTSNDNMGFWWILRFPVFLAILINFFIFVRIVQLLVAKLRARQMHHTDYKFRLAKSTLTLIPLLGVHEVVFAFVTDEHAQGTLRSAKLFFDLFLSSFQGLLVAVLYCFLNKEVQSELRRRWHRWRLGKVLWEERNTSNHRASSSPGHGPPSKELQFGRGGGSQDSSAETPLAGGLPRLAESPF

Compared with `CC(C)C[C@H](Nc1ccc(C(=O)NCCC(=O)O)cn1)c1ccc(-c2ccc(C(F)(F)F)cn2)cc1` [Example 4.1, (S)—N-({6-[(3-methyl-1-{4-[5-(trifluoromethyl)pyridin-2-yl]phenyl}butyl)amino]pyridin-3-yl}carbonyl)-beta-alanine], `Cc1cc(C(CC(C)C)Nc2ccc(C(=O)NCCC(=O)O)cn2)cnc1-c1ccc(C(F)(F)F)cc1` (stereo not drawn) [Example 4.15, 3-(6-(3-methyl-1-(5-methyl-6-(4-(trifluoromethyl)phenyl)pyridin-3-yl)butylamino)nicotinamido)propanoic acid] is 5.5-fold higher in Kb: 67 nM for the first, 370 nM for the second.

Going from `CCC[C@H](Nc1cnc(-c2ccc(C(F)(F)F)cc2)cn1)c1ccc(C(=O)NCCC(=O)O)cc1` [Example 4.4, (S)-3-(4-(1-((5-(4-(trifluoromethyl)phenyl)pyrazin-2-yl)amino)butyl)benzamido)propanoic acid] to `CCC[C@@H](Nc1cnc(-c2ccc(C(F)(F)F)cc2)cn1)c1ccc(C(=O)NCCC(=O)O)cc1` [Example 4.5, (R)-3-(4-(1-((5-(4-(trifluoromethyl)phenyl)pyrazin-2-yl)amino)butyl)benzamido)propanoic acid], the Kb rises from 66 nM to 820 nM (12-fold).

`O=C(O)CCNC(=O)c1ccc(NC(CC2CC2)c2ccc(-c3ccc(C(F)(F)F)cc3)cc2)nc1` (stereo not drawn) [Example 4.14, 3-(6-(2-cyclopropyl-1-(4′-(trifluoromethyl)biphenyl-4-yl)ethylamino)nicotinamido)propanoic acid] and `O=C(O)CCNC(=O)c1ccc(NC(c2ccc(-c3ccc(C(F)(F)F)cc3)cc2)C2CCCOC2)nc1` (stereo not drawn) [Example 4.34, 3-(6-((tetrahydro-2H-pyran-3-yl)(4′-(trifluoromethyl)biphenyl-4-yl)methylamino)nicotinamido)propanoic acid] are within 1.5-fold of each other in Kb: 110 nM for the first, 120 nM for the second.

First: CCCC(Nc1ncc(C(=O)NCCC(=O)O)cn1)c1ccc(-c2ccc(C(F)(F)F)cc2)cc1 (stereo not drawn) [Example 4.17, 3-(2-(1-(4′-(trifluoromethyl)biphenyl-4-yl)butylamino)pyrimidine-5-carboxamido)propanoic acid]
Second: CCCC(Nc1ccc(-c2ccc(C(F)(F)F)cc2)nc1)c1ccc(C(=O)NCCC(=O)O)cc1 (stereo not drawn) [Example 4.18, 3-(4-(1-(6-(4-(trifluoromethyl)phenyl)pyridin-3-ylamino)butyl)benzamido)propanoic acid]
The Kb of the first is 5.7-fold higher: 340 nM for the first, 60 nM for the second.

`CCCC(Nc1ccc(C(=O)NCCC(=O)O)cn1)c1ccc(-c2ccc(C(F)(F)F)cc2)c(OC)c1` (stereo not drawn) [Example 4.23, 3-(6-(1-(2-methoxy-4′-(trifluoromethyl)biphenyl-4-yl)butylamino)nicotinamido)propanoic acid] and `CCCC(Nc1ccc(C(=O)NCCC(=O)O)cn1)c1ccc(-c2ccc(C(F)(F)F)cc2)cc1OC` (stereo not drawn) [Example 4.24, 3-(6-(1-(3-methoxy-4′-(trifluoromethyl)biphenyl-4-yl)butylamino)nicotinamido)propanoic acid] are within 1.5-fold of each other in Kb: 75 nM for the first, 88 nM for the second.

First: CCCC(Nc1ccc(C(=O)NCCC(=O)O)cn1)c1cnc(-c2ccc(OC(F)(F)F)cc2)nc1 (stereo not drawn) [Example 4.25, 3-(6-(1-(2-(4-(trifluoromethoxy)phenyl)pyrimidin-5-yl)butylamino)nicotinamido)propanoic acid]
Second: O=C(O)CCNC(=O)c1ccc(NC(c2cnc(-c3ccc(C(F)(F)F)cc3)nc2)C2CCCC2)nc1 (stereo not drawn) [Example 4.28, 3-(6-(cyclopentyl(2-(4-(trifluoromethyl)phenyl)pyrimidin-5-yl)methylamino)nicotinamido)propanoic acid]
The Kb of the first is 1.7-fold higher: 94 nM for the first, 56 nM for the second.

First: CC(C)CC(Nc1cnc(-c2ccc(C(F)(F)F)cc2)nc1)c1ccc(C(=O)NCCC(=O)O)cc1 (stereo not drawn) [Example 4.31, 3-(4-(3-methyl-1-(2-(4-(trifluoromethyl)phenyl)pyrimidin-5-ylamino)butyl)benzamido)propanoic acid]
Second: CC(C)CC(Nc1cnc(-c2ccc(C(F)(F)F)cc2)nc1)c1ccc(C(=O)NCCC(=O)O)nc1 (stereo not drawn) [Example 4.32]
The Kb of the first is 49-fold lower: 55 nM for the first, 2700 nM for the second.

In the case of `COC1CC(C(Nc2ccc(C(=O)NCCC(=O)O)cn2)c2ccc(-c3ccc(C(F)(F)F)cc3)cc2)C1` (stereo not drawn) [Example 4.33, 3-(6-((3-methoxycyclobutyl)(4′-(trifluoromethyl)biphenyl-4-yl)methylamino)nicotinamido)propanoic acid], the Kb is reported as 280 nM.
